Laboratory results from patent publication US9763445B2, “Safened herbicidal compositions comprising a pyridine carboxylic acid herbicide” (Dow AgroSciences, LLC, priority 2014, dated 2017).

What was measured:
pigweed (AMARE) = experiment: Postemergence greenhouse trial, % visual injury on pigweed; type: in vivo, Amaranthus retroflexus; conditions: for % visual injury, observed (Ob): AMARE; for pest or weed control at 35 g/ha: Amaranthus retroflexus, post-emergence, alone, read-out: % visual injury, Ob
How it was run: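 Injury was scored visually (0 = none, 100 = complete kill) 20–22 d after track-sprayer application at 187 L/ha, compared with solvent-sprayed controls. Test plants at the 2–3 true leaf stage; herbicide (g ae/ha) plus cloquintocet-mexyl safener (g ai/ha) in crop-oil-containing spray; expected mixture response by Colby.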

corn/maize (ZEAMX) = experiment: Postemergence greenhouse trial, % visual injury on corn/maize; type: in vivo, Zea mays; conditions: for % visual injury, observed (Ob): ZEAMX; for % visual injury, Ob: alone, 35 g/ha
Description: (§1) Seeds of the desired test plant species were planted in Sun Gro MetroMix® 306 planting mixture, which typically has a pH of 6.0 to 6.8 and an organic matter content of about 30 percent, in plastic pots with a surface area of 103.2 square centimeters (cm^2). When required to ensure good germination and healthy plants, a fungicide treatment and/or other chemical or physical treatment was applied. The plants were grown for 7-36 days (d) in a greenhouse with an approximate 14-hour (h) photoperiod which was maintained at about 23° C. during the day and 22° C. during the night. Nutrients and water were added on a regular basis and supplemental lighting was provided with overhead metal halide 1000-Watt lamps as necessary. The plants were employed for testing when they reached the second or third true leaf stage.
(§2) Weighed amounts of technical material were dissolved in a volume of 97:3 volume per volume (v/v) acetone/dimethyl sulfoxide (DMSO) to stock solutions. […] The concentrated stock solutions were diluted with an aqueous mixture of 1.5% v/v of Agri-dex crop oil concentrate to provide the appropriate application rates. Compound requirements are based upon a 12 milliliter (mL) application volume at a rate of 187 liters per hectare (L/ha). Stocks solutions of the safeners were prepared following the same procedure. Spray solutions of the safeners and experimental compound mixtures were prepared by adding the stock solutions to the appropriate amount of dilution solution to form a 12 mL spray solution in two-way combinations. Formulated compounds were applied to the plant material with an overhead Mandel track sprayer equipped with 8002E nozzles calibrated to deliver 187 L/ha over an application area of 0.503 square meters (m^2) at a spray height of 18 inches (43 centimeters (cm)) above average plant canopy. Control plants were sprayed in the same manner with the solvent blank. All herbicide application (component a) rates are in g ae/ha and all safener (component b) rates are in g ai/ha.
(§3) The treated plants and control plants were placed in a greenhouse as described above and watered by sub-irrigation to prevent wash-off of the test compounds. After 20-22 d, the condition of the test plants as compared with that of the control plants was determined visually and scored on a scale of 0 to 100 percent where 0 corresponds to no injury and 100 corresponds to complete kill. The condition of the test plants was compared with that of the control plants as determined visually and scored on a scale of 0 to 100 percent, where 0 corresponds to no injury and 100 corresponds to complete kill. Colby's equation was used to determine the herbicidal effects expected from the mixtures.
(§4) The safener cloquintocet-mexyl was combined with compound 1, compound 2, compound 4, compound 5, and compound 6, and applied to corn/maize (ZEAMX) and spring wheat (TRZAS) and the phytotoxicity of the herbicidal compositions was measured. In addition, the efficacy of the herbicidal composition on velvetleaf (ABUTH, Abutilon theophrasti), pigweed (AMARE, Amaranthus retroflexus), winter rape (BRSNW, Brassica napus), lambsquarters (CHEAL, Chenopodium album), thistle (CIRAR, Cirsium arvense), nutsedge (CYPES, Cyperus esculentus), poinsettia (EPHHL, Euphorbia heterophylla), wild buckwheat (POLCO, Polygonum convolvulus), giant foxtail (SETFA, Setaria faberi), and chickweed (STEME, Stellaria media) was evaluated. […]

common sunflower (HELAN) = experiment: Postemergence greenhouse trial, % visual injury on common sunflower; type: in vivo, Helianthus annuus
Description: as §1, §2, §3
(§5) The safener cloquintocet-acid and a number of agriculturally acceptable esters and salts (-mexyl, -dimethylammonium salt and -triethylammonium salt) were combined in varying ratios with compound 1 and applied to spring wheat (TRZAS), winter wheat (TRZAW), and spring barley (HORVS), and the phytotoxicity of the herbicidal compositions was measured. In addition, the efficacy of the herbicidal composition on pigweed (AMARE, Amaranthus retroflexus), nutsedge (CYPES, Cyperus esculentus), common sunflower (HELAN, Helianthus annuus), and common sorghum (SORVU, Sorghum vulgare).

winter wheat (TRZAW) = experiment: Postemergence greenhouse trial, % visual injury on winter wheat; type: in vivo, Triticum aestivum; conditions: TRZAW
Description: as §1, §2, §3
(§6) The safener cloquintocet-mexyl was combined with compound 1, compound 2, compound 3, compound 7, compound 8, compound 9, compound 10, compound 11, compound 12, compound 13, compound 14, compound 15, compound 16, compound 17, compound 18, compound 19, and compound 20, and applied to spring wheat (TRZAS), winter wheat (TRZAW), and spring barley (HORVS) and the phytotoxicity of the herbicidal compositions was measured. […]

common sorghum (SORVU) = experiment: Postemergence greenhouse trial, % visual injury on common sorghum; type: in vivo, Sorghum vulgare; conditions: SORVU
Description: as §1, §2
as §3, with “mixtures. […]” for “mixtures.”
as §5

nutsedge (CYPES) = experiment: Postemergence greenhouse trial, % visual injury on nutsedge; type: in vivo, Cyperus esculentus; conditions: for % visual injury, observed (Ob): CYPES
Description: as §1, §2, §3, §4
The safener cloquintocet-acid and a number of agriculturally acceptable esters and salts (-mexyl, -dimethylammonium salt and -triethylammonium salt) were combined in varying ratios with compound 1 and applied to spring wheat (TRZAS), winter wheat (TRZAW), and spring barley (HORVS), and the phytotoxicity of the herbicidal compositions was measured. […]

velvetleaf (ABUTH) = experiment: Postemergence greenhouse trial, % visual injury on velvetleaf; type: in vivo, Abutilon theophrasti; conditions: alone, 35 g/ha
Description: as §1, §2, §3
(§7) The safener cloquintocet-mexyl was combined with compound 1, compound 2, compound 4, compound 5, and compound 6, and applied to corn/maize (ZEAMX) and spring wheat (TRZAS) and the phytotoxicity of the herbicidal compositions was measured. In addition, the efficacy of the herbicidal composition on velvetleaf (ABUTH, Abutilon theophrasti), pigweed (AMARE, Amaranthus retroflexus), winter rape (BRSNW, Brassica napus), lambsquarters (CHEAL, Chenopodium album), thistle (CIRAR, Cirsium arvense), nutsedge (CYPES, Cyperus esculentus), poinsettia (EPHHL, Euphorbia heterophylla), wild buckwheat (POLCO, Polygonum convolvulus), giant foxtail (SETFA, Setaria faberi), and chickweed (STEME, Stellaria media) was evaluated.
as §6

chickweed (STEME) = experiment: Postemergence greenhouse trial, % visual injury on chickweed; type: in vivo, Stellaria media; conditions: alone, 35 g/ha
Description: as §1, §2, §3, §4

wild buckwheat (POLCO) = experiment: Postemergence greenhouse trial, % visual injury on wild buckwheat; type: in vivo, Polygonum convolvulus; conditions: alone, 35 g/ha
Description: as §1, §2, §3, §7, §6

spring wheat (TRZAS) = experiment: Postemergence greenhouse trial, % visual injury on spring wheat; type: in vivo, Triticum aestivum; conditions: alone, 35 g/ha
Description: as §1, §2, §3, §7, §6

winter rape (BRSNW) = experiment: Postemergence greenhouse trial, % visual injury on winter rape; type: in vivo, Brassica napus; conditions: Brassica napus, post-emergence; alone, 35 g/ha; read-out: % visual injury, Ob
How it was run: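 Visual injury, 0 (none) to 100 (complete kill), rated 20-22 d after overhead track-sprayer application at 187 L/ha; Colby's equation gave expected mixture responses. Herbicide (g ae/ha) and cloquintocet-mexyl safener (g ai/ha) diluted in aqueous 1.5% v/v Agri-dex, applied to weeds at 2–3 true leaves.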

lambsquarters (CHEAL) = experiment: Postemergence greenhouse trial, % visual injury on lambsquarters; type: in vivo, Chenopodium album; conditions: Chenopodium album, post-emergence; alone, 35 g/ha; read-out: % visual injury, Ob
Description: as §1, §2, §3, §7, §6

thistle (CIRAR) = experiment: Postemergence greenhouse trial, % visual injury on thistle; type: in vivo, Cirsium arvense; conditions: Cirsium arvense, post-emergence; alone, 35 g/ha; read-out: % visual injury, Ob
Description: as §1, §2, §3, §4

poinsettia (EPHHL) = experiment: Postemergence greenhouse trial, % visual injury on poinsettia; type: in vivo, Euphorbia heterophylla; conditions: alone, 35 g/ha
Description: as §1
Weighed amounts of technical material were dissolved in a volume of 97:3 volume per volume (v/v) acetone/dimethyl sulfoxide (DMSO) to stock solutions. […] The concentrated stock solutions were diluted with an aqueous mixture of 1.5% v/v of Agri-dex crop oil concentrate to provide the appropriate application rates. Compound requirements are based upon a 12 milliliter (mL) application volume at a rate of 187 liters per hectare (L/ha). Stocks solutions of the safeners were prepared following the same procedure. […]
as §3, with “Colby's equation was used to determine the herbicidal effects expected from the mixtures.” left out
as §4

| Compound | % visual injury, observed (Ob) (pigweed (AMARE); safener alone 2.5 g/ha) [%] | % visual injury, observed (Ob) (pigweed (AMARE); safener alone 5 g/ha) [%] | % visual injury, observed (Ob) (pigweed (AMARE); safener alone 10 g/ha) [%] | % visual injury, observed (Ob) (pigweed (AMARE); safener alone 20 g/ha) [%] | % visual injury, observed (Ob) (corn/maize (ZEAMX); safener alone 2.5 g/ha) [%] | % visual injury, observed (Ob) (corn/maize (ZEAMX); safener alone 5 g/ha) [%] | % visual injury, observed (Ob) (corn/maize (ZEAMX); safener alone 10 g/ha) [%] | % visual injury, observed (Ob) (corn/maize (ZEAMX); safener alone 20 g/ha) [%] | % visual injury, observed (Ob) (common sunflower (HELAN); safener alone 2.5 g/ha) [%] | % visual injury, observed (Ob) (common sunflower (HELAN); safener alone 5 g/ha) [%] | % visual injury, observed (Ob) (common sunflower (HELAN); safener alone 10 g/ha) [%] | % visual injury, observed (Ob) (common sunflower (HELAN); safener alone 20 g/ha) [%] | % visual injury, observed (Ob) (winter wheat (TRZAW); safener alone 2.5 g/ha) [%] | % visual injury, observed (Ob) (winter wheat (TRZAW); safener alone 5 g/ha) [%] | % visual injury, observed (Ob) (winter wheat (TRZAW); safener alone 10 g/ha) [%] | % visual injury, observed (Ob) (winter wheat (TRZAW); safener alone 20 g/ha) [%] | % visual injury, observed (Ob) (common sorghum (SORVU); safener alone 2.5 g/ha) [%] | % visual injury, observed (Ob) (common sorghum (SORVU); safener alone 5 g/ha) [%] | % visual injury, observed (Ob) (common sorghum (SORVU); safener alone 10 g/ha) [%] | % visual injury, observed (Ob) (common sorghum (SORVU); safener alone 20 g/ha) [%] | also measured |
| --- | --- | --- | --- | --- | --- | --- | --- | --- | --- | --- | --- | --- | --- | --- | --- | --- | --- | --- | --- | --- | --- |
| CCN(CC)CC.O=C(O)COc1ccc(Cl)c2cccnc12 [CQC-TEA] | 0 | 0 | 0 | 0 | 0 | 0 | 0 | 0 | 0 | 0 | 0 | 0 | 0 | 0 | 0 | 0 | 0 | 0 | 0 | 0 | % visual injury, observed (Ob) (nutsedge (CYPES); safener alone 2.5 g/ha): 0%; % visual injury, observed (Ob) (nutsedge (CYPES); safener alone 5 g/ha): 0%; % visual injury, observed (Ob) (nutsedge (CYPES); safener alone 10 g/ha): 0%; % visual injury, observed (Ob) (nutsedge (CYPES); safener alone 20 g/ha): 0% |
| O=C(O)COc1ccc(Cl)c2cccnc12 [CQC-acid] | 0 | 0 | 0 | 0 | 0 | 0 | 0 | 0 | 0 | 0 | 0 | 0 | 0 | 0 | 0 | 0 | 0 | 0 | 0 | 0 | % visual injury, observed (Ob) (nutsedge (CYPES); safener alone 2.5 g/ha): 0%; % visual injury, observed (Ob) (nutsedge (CYPES); safener alone 5 g/ha): 0%; % visual injury, observed (Ob) (nutsedge (CYPES); safener alone 10 g/ha): 0%; % visual injury, observed (Ob) (nutsedge (CYPES); safener alone 20 g/ha): 0% |
| COC(=O)c1nc(-c2ccc3ccn(C(=O)C(C)C)c3c2F)c(F)c(N)c1Cl [compound 4] |  |  |  |  |  |  |  |  |  |  |  |  |  |  |  |  |  |  |  |  | % visual injury, Ob (velvetleaf (ABUTH)): 80%; % visual injury, Ob (chickweed (STEME)): 93%; % visual injury, Ob (wild buckwheat (POLCO)): 100%; % visual injury, Ob (spring wheat (TRZAS)): 40%; pest or weed control at 35 g/ha (pigweed (AMARE)): 100%; plant injury at 35 g/ha (winter rape (BRSNW)): 97%; % visual injury, Ob (corn/maize (ZEAMX)): 35%; pest or weed control at 35 g/ha (lambsquarters (CHEAL)): 97%; pest or weed control at 35 g/ha (thistle (CIRAR)): 75% |
| COCC(=O)n1ccc2ccc(-c3nc(C(=O)OC)c(Cl)c(N)c3F)c(F)c21 [compound 6] |  |  |  |  |  |  |  |  |  |  |  |  |  |  |  |  |  |  |  |  | % visual injury, Ob (velvetleaf (ABUTH)): 80%; % visual injury, Ob (wild buckwheat (POLCO)): 97%; % visual injury, Ob (spring wheat (TRZAS)): 35%; % visual injury, Ob (poinsettia (EPHHL)): 100%; pest or weed control at 35 g/ha (pigweed (AMARE)): 100%; plant injury at 35 g/ha (winter rape (BRSNW)): 75%; % visual injury, Ob (corn/maize (ZEAMX)): 25%; pest or weed control at 35 g/ha (lambsquarters (CHEAL)): 100%; pest or weed control at 35 g/ha (thistle (CIRAR)): 75%; % visual injury, Ob (nutsedge (CYPES); alone, 35 g/ha): 0% |
